Source: patent US11186541B2, “Potent inhibitors of aspartate N-acetyl-transferase for the treatment of Canavan disease” (The University of Toledo, priority 2016, dated 2021)

These molecules were tested against T1, Recombinant maltose-binding protein-human aspartate N-acetyltransferase (MBP-ANAT) fusion enzyme (Homo sapiens, UniProt Q8N9F0) (assay: ANAT activity, DTNB-based assay (inhibitor screening and kinetic evaluation)). Details: not given.
T1 construct: His tag (C); made in house; host or cells: E. coli NiCo21(DE3)
T1 sequence (Q8N9F0 1-302): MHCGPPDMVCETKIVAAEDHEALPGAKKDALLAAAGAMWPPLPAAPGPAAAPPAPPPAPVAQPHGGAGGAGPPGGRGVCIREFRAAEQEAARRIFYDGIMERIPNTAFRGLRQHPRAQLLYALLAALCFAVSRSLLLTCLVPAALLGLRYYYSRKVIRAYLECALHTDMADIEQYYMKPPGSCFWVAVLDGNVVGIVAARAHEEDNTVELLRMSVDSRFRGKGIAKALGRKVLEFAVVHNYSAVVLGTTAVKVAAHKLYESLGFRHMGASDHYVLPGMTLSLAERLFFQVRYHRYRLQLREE
Format: biochemical
Excerpt: ANAT is difficult to purify. […] This can be accomplished, for example, as described in U.S. Provisional Patent Application No. 62/216,700, which is incorporated herein by reference for all purposes. […] An optimized thiol detection assay can be used to kinetically characterize this newly produced enzyme form.
Recombinant maltose-binding protein-human aspartate N-acetyltransferase (MBP-ANAT) fusion enzyme was expressed and purified as described in U.S. Provisional Patent Application No. 62/216,700. Briefly, NiCo21(DE3) competent E. coli cells (New England Biolabs, Ipswich, Mass.) were transformed with an MBP-ANAT-his construct and selected on LB plates with 30 μg/ml kanamycin. Colonies from these plates were used to inoculate starter cultures in LB media. After diluting each starter culture by 100-fold in 1 L of LB media, cell growth was continued for about 2 hours at 37° C. until A600 reached 0.6. IPTG was then added to a final concentration of 0.5 mM, and protein expression was induced at 16° C. for 20 hours. To purify MBP-ANAT, a Ni Sepharose 6 Fast Flow column (GE healthcare, Pittsburgh, Pa.) was equilibrated with Buffer A (20 mM potassium phosphate, pH 7.4, 300 mM sodium chloride, 10% glycerol, and 20 mM imidazole). Cell lysate was loaded on to the column and partially purified ANAT was then eluted with a linear gradient of Buffer B (buffer A containing 400 mM imidazole). The active fractions were pooled and loaded onto an amylose column and highly purified ANAT fusion was then obtained by elution with a 0-10 mM linear maltose gradient. ANAT activity was measured by an established DTNB-based assay using a SpectraMax 190 spectrophotometer plate reader (Molecular Devices, Calif.). A typical activity assay contained 20 mM HEPES, pH 7.4, 150 mM NaCl, 5% glycerol, 40 μM DTNB, 40 μM acetyl-CoA, and 2 mM L-aspartate in a total volume of 200 μl. Reaction was monitored at 412 nm (ε=14.15 mM^−1 cm^−1) for at least 15 minutes.
Three different compound libraries were used for initial screening of ANAT inhibitors. These small compound libraries were assembled in-house: an amino acids library contained 96 compounds, a metabolite library contained 96 compounds, and a second amino acids library contained 64 compounds. An additional constrained analogs library contained 77 compounds that were purchased from commercial sources.

SMILES | ANAT inhibitor potency (in words)
O=C(O)C[C@H](NC(=O)OCc1ccccc1)C(=O)O [N-[(benzyloxy)carbonyl]-L-aspartic acid] | surprisingly high potency
NC(=O)[C@@H](N)CC(=O)O [L-aspartic acid amide] | neither alternative substrates nor inhibitors

Same assay, conditions: read-out: inhibition constant against ANAT

SMILES | Ki [mM]
O=C1CC[C@H](C(=O)O)N1 [2-D-pyroglutamic acid] | > 2
O=C(O)C[C@H](NC(=O)c1ccccc1)C(=O)O [comparable L-aspartate derivative, sodium N-benzoyl-L-aspartate] | > 2
O=C(O)c1cc(-c2ccccc2F)no1 [3-(2-fluoro-phenyl)-isoxazole-5-carboxylic acid] | > 2
Cc1noc(-c2cccc(C(=O)O)c2)n1 [3-(3-methyl-1,2,4-oxadiazol-5-yl-benzoic acid] | > 2
O=C(O)CC[C@H](NC(=O)c1ccccc1)C(=O)O [N-benzoyl-L-glutamate] | 0.13
